Among the data in patent US10759767B2 (priority 2012, dated 2020) are melting point, inhibition of growth and Observed efficacy values, retold here.

Read-outs that look alike come from different tables or passages of the source.

Data set [1] has as its system Alternaria solani. Put plainly: Microtest: activity against early blight caused by Alternaria solani (Alteso). To be noted: Alternaria solani, 168 h, read-out: Observed efficacy; for inhibition of growth at 0.001 ppm: solo 0.001 ppm. It is filed as cell-based.
Data set [2] has as its system Phytophthora infestans. Put plainly: microbe, parasite or virus in culture. It is filed as cell-based. As to conditions: Phytophthora infestans, 168 h, read-out: Observed efficacy.
Data set [3] deals with Pyricularia oryzae. In words: microbe, parasite or virus in culture. It is filed as cell-based.
Data set [4] concerns Botrytis cinerea. Put plainly: Microtest: activity against the grey mold Botrytis cinerea (Botrci). It counts as cell-based. As to conditions: Botrytis cinerea, 168 h, read-out: Observed efficacy; for inhibition of growth at 6.3e-05 ppm: solo 0.000063 ppm.
The test system of data set [5] is Leptosphaeria nodorum. Put plainly: Microtest: activity against wheat leaf spots caused by Leptosphaeria nodorum (Leptno). It counts as cell-based. As to conditions: Parastagonospora nodorum, 168 h, read-out: Observed efficacy.
Data set [6] deals with Septoria tritici. Put plainly: Microtest: activity against leaf blotch on wheat caused by Septoria tritici (Septtr). It is filed as cell-based. To be noted: solo product; for inhibition of growth at 6.3e-05 ppm: 0.000063 ppm.
[7] abbreviates: Pyricularia oryzae, 168 h, read-out: Observed efficacy.

`OC(Cn1cncn1)(c1ccc(Oc2ccc(Cl)cc2)cc1Cl)C1CC1` (stereo not shown): the melting point (as a rule, the temperature of the solid-liquid transition) was 110 °C.

`OC(Cn1cncn1)(c1ccc(Oc2ccc(Cl)cc2)cc1C(F)(F)F)C1CC1` (stereo not shown) [I-4, 1-[4-(4-chlorophenoxy)-2-(trifluoromethyl)phenyl]-1-cyclopropyl-2-(1,2,4-triazol-1-yl)ethanol]: the inhibition of growth at 6.3e-05 ppm is 5% in data set [1] (solo 0.000063 ppm); 4% in data set [4]; 8% in data set [6] (Zymoseptoria tritici, 168 h, second Septtr microtest, read-out: Observed efficacy). Also, the inhibition of growth at […] in data set [1] (solo 0.00025 ppm) came out at 7%; in data set [1] (solo 0.25 ppm), 33%; in data set [4] (solo 0.00025 ppm) it was 2%; in data set [4] (solo 0.063 ppm), 4%; in data set [4] (solo 0.25 ppm), 17%. Further, the inhibition of growth at 0.001 ppm was 10% in data set [1]; 5% in data set [4] (solo 0.001 ppm); 15% in data set [5] (solo 0.001 ppm); 0% in data set [6] (Zymoseptoria tritici, 168 h, 0.001 ppm, read-out: Observed efficacy). The inhibition of growth at 4 ppm in data set [2] was determined as 3%. The inhibition of growth at 16 ppm in data set [2] was found to be 9%. Besides, the inhibition of growth at 1 ppm in data set [3] (setting [7]) came out at 47%. In addition, the inhibition of growth at 1.6e-05 ppm in data set [6] (Zymoseptoria tritici, 168 h, second Septtr microtest, 0.000016 ppm, read-out: Observed efficacy) came to 3%. The Observed efficacy in data set [6] (second Septtr microtest, 0.001 ppm) is reported as 0%; in data set [6] (0.016 ppm) it was 18.

The compound `CC#CC(O)(Cn1cncn1)c1ccc(Oc2ccc(Cl)cc2)cc1Cl` (stereo not shown) [I-1, 2-[2-chloro-4-(4-chlorophenoxyl)phenyl]-1-(1,2,4-triazol-1-yl)pent-3-yn-2-ol] displayed a melting point of 137 °C. Moreover, the inhibition of growth at […] in data set [1] (solo 0.00025 ppm) was determined as 4%. Further, the inhibition of growth at 0.001 ppm in data set [1] was 10%. In data set [2], the inhibition of growth at 16 ppm was 0%. In data set [3] (setting [7]), the inhibition of growth at 0.001 ppm worked out at 3% and the inhibition of growth at 0.016 ppm was 0%. This compound gave an Observed efficacy in data set [3] (solo product, 0.016 ppm) of 0%. For the same compound, in data set [4] (solo 0.000001 ppm), the inhibition of growth at 1e-06 ppm came out at 4%. Further, the inhibition of growth at 4e-06 ppm in data set [4] (solo 0.000004 ppm) came to 0%. In addition, the inhibition of growth at 1.6e-05 ppm in data set [4] (solo 0.000016 ppm) came to 1%. Besides, the inhibition of growth at 6.3e-05 ppm in data set [4] was found to be 0%. Moreover, the inhibition of growth at […] in data set [4] (solo 0.063 ppm) worked out at 16%. For the same compound, the inhibition of growth at […] in data set [5] (solo 0.063 ppm) amounted to 19%. For the same compound, the inhibition of growth at 6.3e-05 ppm in data set [5] (solo product, 0.000063 ppm) was found to be 12%. The inhibition of growth at 4e-06 ppm in data set [6] (Zymoseptoria tritici, 168 h, second Septtr microtest, 0.000004 ppm, read-out: Observed efficacy) stood at 11%. For the same compound, in data set [6] (Zymoseptoria tritici, 168 h, second Septtr microtest, 0.00063 ppm, read-out: Observed efficacy), the inhibition of growth at […] was 17%. Further, the inhibition of growth at 6.3e-05 ppm in data set [6] (Zymoseptoria tritici, 168 h, read-out: Observed efficacy) turned out to be 17%.

On to `CC#CC(O)(Cn1cncn1)c1ccc(Oc2ccc(Cl)cc2)cc1C(F)(F)F` (stereo not shown), for which the melting point stood at 137 °C.

Compound `CC(C)C(O)(Cn1cncn1)c1ccc(Oc2ccc(Cl)cc2)cc1C(F)(F)F` (stereo not shown) [I-5, 2-[4-(4-chlorophenoxy)-2-(trifluoromethyl)phenyl]-3-methyl-1-(1,2,4-triazol-1-yl)butan-2-ol] registered a melting point of 114 °C. Further, in data set [1] (solo 0.000004 ppm), the inhibition of growth at 4e-06 ppm amounted to 8%. In addition, the inhibition of growth at 0.004 ppm in data set [1] (solo 0.004 ppm) came out at 11%. Also, the inhibition of growth at 0.016 ppm in data set [1] (solo 0.016 ppm) turned out to be 10%. Moreover, in data set [1] (solo 0.063 ppm), the inhibition of growth at […] amounted to 14%. Also, the inhibition of growth at 1 ppm in data set [1] (solo 1 ppm) worked out at 49%. In data set [2], the inhibition of growth at 16 ppm was 2% and the inhibition of growth at 63 ppm is 45%. In data set [3] (setting [7]), the inhibition of growth at 0.001 ppm was found to be 5%, the inhibition of growth at 0.004 ppm turned out to be 0%, the inhibition of growth at 0.016 ppm was 0% and the inhibition of growth at 1 ppm was 67%. Further, the inhibition of growth at […] in data set [4] (solo 0.063 ppm) amounted to 14%. For the same compound, the inhibition of growth at […] in data set [4] (solo 0.25 ppm) stood at 27%. In addition, the inhibition of growth at […] in data set [5] (solo 0.25 ppm) was 19%. The inhibition of growth at 0.001 ppm in data set [5] (solo product, 0.001 ppm) was found to be 9%. For the same compound, in data set [5] (solo product, 0.063 ppm), the inhibition of growth at […] came to 20%. Moreover, the inhibition of growth at 2.5e-07 ppm in data set [6] (Zymoseptoria tritici, 168 h, second Septtr microtest, 0.00000025 ppm, read-out: Observed efficacy) was determined as 5%. In data set [6] (Zymoseptoria tritici, 168 h, second Septtr microtest, 0.000001 ppm, read-out: Observed efficacy), the inhibition of growth at 1e-06 ppm turned out to be 10%. The inhibition of growth at 1.6e-05 ppm in data set [6] (Zymoseptoria tritici, 168 h, 0.000016 ppm, read-out: Observed efficacy) worked out at 13%. This compound also returned an Observed efficacy in data set [6] (second Septtr microtest, 0.000016 ppm) of 13%.
